Measurements taken from US20080261994A1, “CYCLOPROPANE COMPOUNDS AND PHARMACEUTICAL USE THEREOF” (Japan Tobacco Inc., priority 2003, published 2008).
Counter-ions that a name gives are not always drawn. Like-named read-outs stand apart in the source and are kept apart here.

Assays:
Assay type in all cases: biochemical
[1] = molecular target: T1, aggrecanase-1 (Homo sapiens, UniProt O75173); assay: Aggrecanase-1 inhibitory action (Particle Assay, GAG release from aggrecan-containing polyacrylamide particles)
T1 sequence (O75173 213-837): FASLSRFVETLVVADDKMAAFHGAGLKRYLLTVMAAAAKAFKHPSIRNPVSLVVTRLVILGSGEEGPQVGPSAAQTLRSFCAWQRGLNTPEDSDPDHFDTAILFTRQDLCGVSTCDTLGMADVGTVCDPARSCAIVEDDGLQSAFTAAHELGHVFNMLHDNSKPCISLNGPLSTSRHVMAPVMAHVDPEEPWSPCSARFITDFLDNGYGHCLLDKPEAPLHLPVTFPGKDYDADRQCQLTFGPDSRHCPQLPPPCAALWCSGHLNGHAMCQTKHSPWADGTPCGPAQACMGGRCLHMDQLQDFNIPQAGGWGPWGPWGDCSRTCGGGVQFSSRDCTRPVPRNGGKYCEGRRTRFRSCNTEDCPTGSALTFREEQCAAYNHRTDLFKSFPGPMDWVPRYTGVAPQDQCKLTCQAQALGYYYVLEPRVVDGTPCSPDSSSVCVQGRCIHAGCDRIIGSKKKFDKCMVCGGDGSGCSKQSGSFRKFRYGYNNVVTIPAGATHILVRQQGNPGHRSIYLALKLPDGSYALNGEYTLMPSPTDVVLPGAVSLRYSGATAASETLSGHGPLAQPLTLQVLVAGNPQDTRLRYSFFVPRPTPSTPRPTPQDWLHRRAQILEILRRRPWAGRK
In short: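 Enzyme and compound incubated with aggrecan-containing polyacrylamide particles in Tris-HCl buffer at 37° C for 15 h. Released GAG in supernatant measured with 1,9-dimethylmethylene blue at 595 nm against chondroitin sulfate standard; % inhibition from enzyme-free and inhibitor-free wells, reported as TC50 (μM).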

[2] = molecular target: T2, MMP-1 (Homo sapiens, UniProt P03956); assay: MMP-1 inhibitory action (Type I collagen Activity Measurement kit, FITC-labeled collagen type I)
T2 sequence (P03956 100-469): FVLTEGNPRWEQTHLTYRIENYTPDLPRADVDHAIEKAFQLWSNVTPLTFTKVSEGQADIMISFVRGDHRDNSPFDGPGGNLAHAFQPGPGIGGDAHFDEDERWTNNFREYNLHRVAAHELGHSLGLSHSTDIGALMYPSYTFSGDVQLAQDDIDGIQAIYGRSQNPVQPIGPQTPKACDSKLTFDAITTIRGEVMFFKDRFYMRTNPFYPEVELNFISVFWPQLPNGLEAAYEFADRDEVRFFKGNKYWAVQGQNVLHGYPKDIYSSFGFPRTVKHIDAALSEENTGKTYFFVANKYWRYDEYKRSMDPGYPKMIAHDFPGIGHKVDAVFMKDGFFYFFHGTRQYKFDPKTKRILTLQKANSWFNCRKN

[3] = molecular target: T3, Recombinant Human MMP-13 (Homo sapiens, UniProt P45452); assay: MMP-13 inhibitory activity (MMP-13 specific fluorescent substrate with quencher)
T3 construct: purchased R&D systems 511-MM
In short: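 Recombinant human MMP-13 with test compound, reaction started with quenched fluorogenic peptide 7-MCA-Pro-CHA-Gly-NVal-His-Ala-DPA in Tris-HCl buffer, 1 h at 25 °C, stopped with acetic acid. Fluorescence at Ex 325/Em 405 nm; % inhibition versus enzyme-free and inhibitor-free wells, reported as IC50 (μM).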

[4] = Experimental Example 1, read-out: IC50 AG1
[5] = Experimental Example 2, read-out: IC50 MMP1
[6] = Experimental Example 3, read-out: IC50 MMP13
[7] = aggrecanase-1 inhibitory action, read-out: IC50 AG1 (Experimental Example 1)
[8] = MMP-1 inhibitory action, FITC-labeled collagen type I, 37° C. for 3 hr, read-out: IC50 MMP1 (Experimental Example 2)
[9] = Recombinant Human MMP-13, fluorescent substrate, 25° C. for 1 h, read-out: IC50 MMP13 (Experimental Example 3)

Compound | IC50 [1, 4] [µM] | IC50 [2, 5] [µM] | IC50 [3, 6] [µM] | IC50 [1, 7] [µM] | IC50 [2, 8] [µM] | IC50 [3, 9] [µM]
O=C(O)C1(NS(=O)(=O)c2ccc(-c3ccc(Cl)cc3)s2)C2CCc3ccccc3C21 (stereo not drawn) [Example 2-350] | < 1 | ≥ 1 | < 0.1 |  |  | 
O=C(O)[C@]1(NS(=O)(=O)c2ccc(-c3ccc(Cl)cc3)s2)C[C@@H]1c1ccccc1Br [Example 2-178] |  |  |  | < 0.1 | ≥ 10 | < 1
CC(=O)c1ccc(-c2ccc(S(=O)(=O)N[C@@]3(C(=O)O)C[C@]3(C)c3ccccc3)s2)cc1 [Example 2-573] | < 1 | ≥ 1 | < 0.1 |  |  | 
O=C(O)C1(NS(=O)(=O)c2ccc(OCc3ccc(Cl)cc3Cl)cc2)C2CCCc3ccccc3C21 (stereo not drawn) [Example 2-363] | ≥ 1 | ≥ 10 | < 1 |  |  | 
CC(C)OC(=O)N1CCN(S(=O)(=O)N[C@@]2(C(=O)O)C[C@@H]2c2ccccc2)CC1 [Example 2-510] | ≥ 1 | ≥ 1 | ≥ 1 |  |  | 
C[C@]1(c2ccccc2)C[C@@]1(NS(=O)(=O)c1ccc(-c2ccc(Cl)cc2)s1)C(=O)O [Example 2-101] |  |  |  | < 0.1 | ≥ 1 | < 1
O=C(O)C1(NS(=O)(=O)c2ccc(-c3cc(C(F)(F)F)on3)s2)CC1c1cccc(NCc2cccnc2)c1 (stereo not drawn) [Example 2-213] |  |  |  | < 0.1 | < 1 | < 0.1
CC1[C@H](c2ccccc2)[C@]1(NS(=O)(=O)c1ccc(-c2cn3ccccc3n2)s1)C(=O)O (stereo partly drawn) [Example 2-570] | < 1 | ≥ 1 | < 0.1 |  |  | 
CC1[C@H](c2ccccc2)[C@]1(NS(=O)(=O)N1CCC(Oc2cccc(Cl)c2)C1)C(=O)O (stereo partly drawn) [Example 2-501] | ≥ 1 | ≥ 1 | ≥ 1 |  |  | 
Cc1cc(-c2ccc(S(=O)(=O)NC3(C(=O)O)C4CCCc5ccccc5C43)s2)no1 (stereo not drawn) [Example 2-375] | < 0.1 | < 1 | < 0.1 |  |  | 
O=C(O)[C@]1(NS(=O)(=O)c2ccc(-c3cc(CF)on3)cc2)C[C@@H]1c1ccccc1 [Example 2-137] |  |  |  | ≥ 1 | < 1 | < 0.1
C[C@]1(c2ccccc2)C[C@@]1(NS(=O)(=O)c1ccc(-c2ccc(C(F)(F)F)cc2)s1)C(=O)O [Example 2-572] | < 0.1 | ≥ 1 | < 0.1 |  |  | 
COC(=O)Cc1cccc(C2CC2(NS(=O)(=O)c2ccc(-c3ccc(Cl)cc3)s2)C(=O)O)c1 (stereo not drawn) [Example 2-188] |  |  |  | < 0.1 | ≥ 1 | < 0.1
O=C(O)C1(NS(=O)(=O)c2ccc(-c3ccc(Cl)cc3)s2)C2CCC(O)c3ccccc3C21 (stereo not drawn) [Example 2-412] | < 0.1 | ≥ 1 | < 0.1 |  |  | 
C[C@]1(c2ccccc2)C[C@@]1(NS(=O)(=O)c1ccc(-n2cc(C(F)(F)F)cn2)s1)C(=O)O [Example 2-599] | < 0.1 | ≥ 1 | < 1 |  |  | 
COC(=O)CCc1cccc(C2CC2(NS(=O)(=O)c2ccc(-c3ccc(Cl)cc3)s2)C(=O)O)c1 (stereo not drawn) [Example 2-208] |  |  |  | < 0.1 | ≥ 1 | < 0.1
O=C(O)C1(NS(=O)(=O)c2ccc(-c3ccc(Cl)cc3)s2)CC1(CCCO)c1ccccc1 (stereo not drawn) [Example 2-227] |  |  |  | < 0.1 | ≥ 1 | < 1
CC(=O)c1cnn(-c2ccc(S(=O)(=O)N[C@@]3(C(=O)O)C(C)[C@@H]3c3ccccc3)s2)c1 (stereo partly drawn) [Example 2-546] | < 0.1 | < 0.1 | < 0.1 |  |  | 
CC1[C@H](c2ccccc2)[C@]1(NS(=O)(=O)N1CCN(C(=O)OCc2ccccc2)CC1)C(=O)O (stereo partly drawn) [Example 2-532] | ≥ 1 | ≥ 1 | ≥ 1 |  |  | 

Compound | IC50 [1, 4] [µM] | IC50 [2, 5] [µM] | IC50 [3, 6] [µM] | IC50 [1, 7] [µM] | IC50 [2, 8] [µM] | IC50 [3, 9] [µM]
CC1[C@H](c2ccccc2)[C@]1(NS(=O)(=O)c1ccc(-n2cc(C(F)(F)F)cn2)s1)C(=O)O (stereo partly drawn) [Example 2-577] | < 0.1 | < 1 | < 0.1 |  |  | 
O=C(Nc1cccc(C2CC2(NS(=O)(=O)c2ccc(-c3ccc(Cl)cc3)cc2)C(=O)O)c1)c1ccncc1 (stereo not drawn) [Example 1-63] |  |  |  | < 1 | ≥ 1 | < 0.1
C[C@]1(c2ccccc2)C[C@@]1(NS(=O)(=O)c1ccc(-n2cc(CO)cn2)s1)C(=O)O [Example 2-603] | < 1 | < 1 | < 1 |  |  | 
O=C(O)Cc1cccc(C2CC2(NS(=O)(=O)c2ccc(-c3cc(C(F)(F)F)on3)s2)C(=O)O)c1 (stereo not drawn) [Example 2-212] |  |  |  | < 0.1 | ≥ 1 | < 1
O=C(O)C1(NS(=O)(=O)c2ccc(-c3ccc(Cl)cn3)s2)CC1c1ccccc1CO (stereo not drawn) [Example 2-63] |  |  |  | < 0.1 | ≥ 1 | < 0.1
CC(=O)N1Cc2ccccc2C2(C1)CC2(NS(=O)(=O)c1ccc(-c2ccc(Cl)cc2)s1)C(=O)O (stereo not drawn) [Example 2-207] |  |  |  | < 1 | ≥ 10 | < 1
O=C(O)C1(NS(=O)(=O)c2ccc(-c3ccc(Cl)cn3)s2)CC1c1cccc(Cn2cccn2)c1 (stereo not drawn) [Example 2-56] |  |  |  | < 0.1 | ≥ 10 | < 0.1
CC1[C@H](c2ccccc2)[C@]1(NS(=O)(=O)N1CCN(C(=O)Nc2ccccc2)CC1)C(=O)O (stereo partly drawn) [Example 2-11, (1S,2R,3R)-2-methyl-3-phenyl-1-(4-phenylcarbamoyl-piperazine-1-sulfamoylamino)-cyclopropanecarboxylic acid] |  |  |  | ≥ 1 | ≥ 1 | ≥ 1
C[C@]1(c2ccccc2)C[C@@]1(NS(=O)(=O)c1ccc(N2CCOCC2)s1)C(=O)O [Example 2-421] | ≥ 1 | ≥ 10 | ≥ 1 |  |  | 
CN(C)CCOc1ccccc1C1CC1(NS(=O)(=O)c1ccc(-c2ccc(Cl)cc2)s1)C(=O)O (stereo not drawn) [Example 2-49] |  |  |  | ≥ 1 | ≥ 10 | ≥ 10
CC1[C@H](c2ccccc2)[C@]1(NS(=O)(=O)c1ccc(-n2cc(C(C)(C)O)cn2)s1)C(=O)O (stereo partly drawn) [Example 2-523] | < 1 | < 1 | < 0.1 |  |  | 
O=C(O)[C@]1(NS(=O)(=O)c2ccc(C3=CCNCC3)s2)C[C@@H]1c1ccccc1 [Example 2-2, (1S,2R)-2-phenyl-1-[5-(1,2,3,6-tetrahydro-pyridin-4-yl)-thiophene-2-sulfonylamino]-cyclopropanecarboxylic acid hydrochloride] |  |  |  | ≥ 10 | ≥ 10 | ≥ 10
CC1(c2cccc(S(C)(=O)=O)c2)CC1(NS(=O)(=O)c1ccc(-c2cc(C(F)(F)F)on2)s1)C(=O)O (stereo not drawn) [Example 2-614] | < 0.1 | < 1 | ≥ 1 |  |  | 
O=C(CCc1cccc(C2CC2(NS(=O)(=O)c2ccc(-c3ccc(Cl)cc3)s2)C(=O)O)c1)N1CCSCC1 (stereo not drawn) [Example 2-211] |  |  |  | < 0.1 | ≥ 10 | < 0.1
CC(C)CCN1CCN(S(=O)(=O)N[C@@]2(C(=O)O)C(C)[C@@H]2c2ccccc2)CC1 (stereo partly drawn) [Example 2-530] | ≥ 1 | ≥ 1 | ≥ 1 |  |  | 
C[C@]1(c2ccc(Cl)cc2)C[C@@]1(NS(=O)(=O)c1ccc(-c2cc(C(F)(F)F)on2)s1)C(=O)O [Example 2-620] | < 0.1 | < 1 | < 0.1 |  |  | 
O=C(O)C1(NS(=O)(=O)c2ccc(-c3ccc(Cl)cc3)s2)CC1c1ccccc1OCc1ccccn1 (stereo not drawn) [Example 2-23] |  |  |  | < 1 | ≥ 10 | < 1
O=C(O)COCC1(c2ccccc2)CC1(NS(=O)(=O)c1ccc(-c2ccc(Cl)cc2)s1)C(=O)O (stereo not drawn) [Example 2-405] | < 0.1 | ≥ 10 | < 1 |  |  | 
COCc1cc(-c2ccc(S(=O)(=O)N[C@@]3(C(=O)O)C(C)[C@@H]3c3ccccc3)s2)no1 (stereo partly drawn) [Example 2-404] | < 0.1 | < 1 | < 0.1 |  |  | 
